Test results taken from doi:10.1101/2025.03.10.642353v1, “Deciphering the role of histo-blood group antigens in bovine rotavirus C infection” (biorxiv, 2025).

Target: T1, bovine P[3] RVC VP8* (Bovine rotavirus C, UniProt L0N4C6)
T1 construct: gene VP4; VP8* galectin-like domain of polyprotein-like spike VP4 (trypsin-cleaved), residues 64-228 (E64-R228), synthetic codon-optimised gene, pGEX-2T N-terminal GST, E. coli BL21(DE3)
Assay: STD NMR (binding epitope mapping)
Conditions: PBS in D2O, pH 7.4, 278 K; 50 uM protein, 2 mM ligand; both anomers of reducing GlcNAc
From the text: STD NMR (binding epitope mapping) on bovine P[3]

CC(=O)N[C@H]1C(O)O[C@H](CO)[C@@H](O[C@@H]2O[C@H](CO)[C@H](O)[C@H](O)[C@H]2O[C@@H]2O[C@@H](C)[C@@H](O)[C@@H](O)[C@@H]2O)[C@@H]1O (stereo partly drawn) [H2, Fuc-α1,2-Gal-β1,4-GlcNAc]
STD NMR (binding epitope mapping): All performed STD NMR experiments showed clear signals confirming the binding of H2 antigen
